From US9796962B2, “Method for generating pancreatic hormone-producing cells” (Kyoto University, priority 2013, dated 2017)
Where a name gives a salt, the structure may show the parent alone.

How the values were obtained:
[1] = test system: cell line 201B7; experiment: Ki67 staining, ability of differentiated cells to proliferate; type: cell-based, human; conditions: 10 mM, 12 days in step 3, FIG. 3
Protocol: Cells from cell line 201B7 were subjected to steps 1 and 2 in the same manner as above and cultured for 12 days in step 3. The obtained cells were stained with Ki67 and the ability of the cells to proliferate was evaluated. […] In addition, the obtained cells were treated by using BD Cytofix/Cytoperm™ Kit and stained with monoclonal anti-glucagon clone K79bB10 (SIGMA). The cells were analyzed by flow cytometry to determine the number of the glucagon positive cells.

[2] = test system: Human iPS cell line 201B7; experiment: Differentiation of 201B7 with sodium cromoglicate used solely or with single additives in step 3; type: cell-based
Protocol: Human iPS cell line 201B7 was used. The cells were differentiated into insulin producing cells by the following steps. The colonies of the iPS cell line was grown to approximately 80-90% confluence in the culture plate and dissociated from the plate by using CTK solution (Reprocell). The dissociated colonies were then divided into single cells using Accutase™ and seeded in 24 well plates (Greiner) at 2.0×10^5/well. The cells were cultured in RPMI medium containing 1% B-27 added with activin A (100 ng/ml), CHIR99021 (1 μM) and Y-27632 (10 μM) for 2 days. Then, the cells were further cultured in RPMI medium containing 1% B-27 added with activin A (100 ng/ml) and CHIR99021 (1 μM) for more 3 days (Day 5). During this period, the medium was changed with the same fresh medium on the third (Day 3) and the fourth days (Day 4). The cells obtained in Step 1 were cultured in improved MEM Zinc Option medium containing 1% B-27 added with dorsomorphin (1 μM), retinoic acid (2 μM), and SB431542 (10 μM) for 6 days (Day 11). During this period, the medium was changed with the same fresh medium every two days. The cells obtained in Step 2 were cultured in improved MEM Zinc Option medium containing 1% B-27 added with sodium cromoglicate (10 mM) for more 8 days (Day 19). During this period, the medium was changed with the same fresh medium every four days. The ratio of insulin expression versus β-Actin expression was determined by using quantitative PCR. […] Then, the effect of sodium cromoglicate when used in combination with each of the four additives used in EXAMPLE 4: forskolin (10 μM), nicotinamide (10 mM), dexamethasone (10 μM), and ALK5 inhibitor II (5 μM) was determined.

[3] = test system: iPS cell lines 418C1, 409B2 and 201B7; experiment: Differentiation of three iPS cell lines into insulin positive cells; type: cell-based, human; conditions: 10 mM in step 3 vs control; all three iPS cell lines; FIG. 2A
Source text: Three iPS cell lines, 418C1 and 409B2 (Okita K, et al, Nat Methods. 2011 8:409-412) and 201B7, all of which were generated from fibroblast cells, can be obtained from Center for iPS Cell Research and Application, Kyoto University. The iPS cell lines obtained from Kyoto University were differentiated into insulin positive cells by subjecting the cells to the same steps as those in Examples 1 and 2 with the exception that the concentration of sodium cromoglicate in the culture medium used in step 3 was 10 mM.

[4] = test system: Pancreatic anlages from mice embryos E12.5, E14.5 and E16.5; experiment: Differentiation of fetal pancreatic anlages into insulin producing cells (insulin promoter GFP); type: cell-based; conditions: 10 mM with 4 factors
Protocol: Pancreatic anlages were obtained from mice embryos E12.5, E14.5 and E16.5 that express GFP on the downstream of the insulin promoter. Each pancreatic anlage was cultured in a suspension culture in Improved MEM Zinc Option medium containing 1% B-27 added with forskolin (10 μM), nicotinamide (10 mM), dexamethasone (10 μM), ALK5 inhibitor II (5 μM) and sodium cromoglicate (10 mM) for 4 days.
Further, expression of insulin and Neurog 3 in thus obtained cells were analyzed by PCR and confirmed that the expression of those genes was increased in the cells cultured with sodium cromoglicate (FIG. 7C).

[5] = test system: Human iPS cell line 201B7; experiment: Differentiation of 201B7 with 8 days step 3: marker gene PCR, immune staining, insulin amount; type: cell-based
Protocol: Human iPS cell line 201B7 was used. The cells were differentiated into insulin producing cells by the following steps. The colonies of the iPS cell line was grown to 80-90% confluence in the culture plate and dissociated from the dish by using CTK solution (Reprocell). The dissociated colonies were then divided into single cells using Accutase™ and seeded in 24 well plates (Greiner) at 2.0×10^5/well.
The cells were cultured in RPMI medium containing 1% B-27 added with activin A (100 ng/ml), CHIR99021 (1 μM) and Y-27632 (10 μM) for 2 days. Then, the cells were further cultured in RPMI medium containing 1% B-27 added with activin A (100 ng/ml) and CHIR99021 (1 μM) for more 3 days (Day 5). During this period, the medium was changed with the same fresh medium on the third (Day 3) and the fourth days (Day 4).
The cells obtained in Step 1 were cultured in improved MEM Zinc Option medium containing 1% B-27 added with dorsomorphin (1 μM), retinoic acid (2 μM), and SB431542 (10 μM) for 6 days (Day 11). During this period, the medium was changed with the same fresh medium every two days.
The cells obtained in Step 2 were cultured in improved MEM Zinc Option medium containing 1% B-27 added with forskolin (10 μM), nicotinamide (10 mM), dexamethasone (10 μM), ALK5 inhibitor II ((2-(3-(6-Methylpyridin-2-yl)-1H-pyrazol-4-yl)-1,5-naphthyridine)) (5 μM) and sodium cromoglicate (10 mM) for more 8 days (Day 19). During this period, the medium was changed with the same fresh medium every four days.
The cells at each step were collected, i.e. on Day 0, Day 5, Day 11 and Day 19, and the expressions of marker genes were determined by PCR (FIG. 5B). In the group where cells were cultured in the presence of sodium cromoglicate in step 3, the expression of NGN3 and GHRE (Ghrelin) were confirmed. The expression of SST (somatostatin) in the group where cells were cultured in the presence of sodium cromoglicate in step 3 was higher than that in the group where cells were cultured in the absence of sodium cromoglicate.
Further, the cells were subjected to immune staining and confirmed the production of proteins corresponding to the marker genes (FIG. 5C). The amount of insulin produced by the cells obtained by culturing the cells in the presence of sodium cromoglicate in step 3 and that produced by the cells obtained by culturing in the absence of sodium cromoglicate were compared, and the amount of insulin produced by the cells obtained with sodium cromoglicate was higher than that produced by the cells obtained without sodium cromoglicate (FIG. 5D).
The cells were subjected to immune staining and the production of pancreatic hormones was confirmed (FIGS. 6A and 6B).

[6] = test system: Human ES cell line KhES3; experiment: Differentiation of human ES cell line KhES3 into insulin producing cells, flow cytometry; type: cell-based; conditions: step 3 with 4 factors plus 0.001-20 mM sodium cromoglicate, 12 days
Source text: Human ES cell line KhES3 was obtained from Kyoto University and maintained in the manner as shown in H. Suemori et al. (2006), Biochem. Biophys. Res. Commun., 345:926-932, the contents of this document is herein incorporated by reference. The cells of KhES3 were differentiated into insulin producing cells according to the steps shown below. The colonies of the human ES cell line grown to approximately 70% confluent in the culture plate were dissociated from the plate by using CTK solution (Reprocell). The dissociated colonies were then divided into single cells using Accutase™ and seeded in 24 well plates (Greiner) at 2.0×10^5/well. The cells were cultured in RPMI medium containing 2% FBS added with activin A (100 ng/ml) and CHIR99021 (3 μM) for 5 days. During this period, the medium was changed with the same fresh medium on the third and the fourth days. The cells obtained in Step 1 were cultured in improved MEM Zinc Option medium containing 1% B-27 (Invitrogen Corp.) comprising dorsomorphin (1 μM), retinoic acid (2 μM), and SB431542 (10 μM) for 6 days. During this period, the medium was changed with the same fresh medium every two days. […] The obtained cells were treated by using BD Cytofix/Cytoperm™ Kit and then, stained with polyclonal guinea-pig anti Swine insulin antibody/anti-serum (DAKO) and analyzed using flow cytometry to determine the number of insulin producing cells.

[7] = test system: Human iPS cell line 201B7; experiment: Differentiation of human iPS cell line 201B7 into insulin producing cells (step 3 with 4 factors), flow cytometry; type: cell-based
Protocol: Human iPS cell line 201B7 (this cell line can be obtained from Center for iPS Cell Research And Application, Kyoto University, Takahashi K et al, Cell. 2007 131:861-72., the contents of this document is incorporated herein by reference) was used. The iPS cells were differentiated into insulin producing cells by using the following steps. The colonies of the iPS cell line were grown to 70% confluent in the culture plate and dissociated from the plate by using CTK solution (Reprocell). The dissociated colonies were then divided into single cells using Accutase™ and seeded in 24 well plates (Greiner) at 2.0×10^5/well. The cells were cultured in RPMI medium containing 2% FBS added with activin A (100 ng/ml) and CHIR99021 (3 μM) for 5 days. During this period, the medium was changed with the same fresh medium on the third and the fourth days. The cells obtained in Step 1 were cultured in improved MEM Zinc Option medium containing 1% B-27 (Invitrogen Corp.) added with dorsomorphin (1 μM), retinoic acid (2 μM), and SB431542 (10 μM) for 6 days. During this period, the medium was changed with the same fresh medium every two days. The cells obtained in Step 2 were cultured in improved MEM Zinc Option medium containing 1% B-27 (Invitrogen Corp.) added with forskolin (10 μM), nicotinamide (10 mM), dexamethasone (10 μM), ALK5 inhibitor II ((2-(3-(6-methylpyridin-2-yl)-1H-pyrazol-4-yl)-1,5-naphthyridine)) (5 μM) and sodium cromoglicate (0.001 mM, 0.01 mM, 0.1 mM, 1 mM, 5 mM, 10 mM or 20 mM) for more 12 days. During this period, the medium was changed with the same fresh medium every four days. The obtained cells analyzed using flow cytometry to determine the number of insulin producing cells in the same manner as Example 1. The addition of 1 mM or more sodium cromoglicate in the culture medium increased the ratio of insulin positive cells and the maximum insulin positive cell-ratio was obtained when 10 mM sodium cromoglicate was added (FIG. 1A). Insulin production was confirmed by immune staining of the cells (FIG. 1B). Further, cells were stained with anti-human C-peptide antibody (Peninsula Laboratories LLC.) and analyzed by flow cytometry to see the production of C-peptide which is obtained by processing of pro-insulin. […] The highest ratio of the insulin positive cells was obtained by 12 days-culture in step 3. […] (FIG. 2B) Cells from cell line 201B7 were subjected to steps 1 and 2 in the same manner as above and cultured for 12 days in step 3. The obtained cells were stained with Ki67 and the ability of the cells to proliferate was evaluated. […] In addition, the obtained cells were treated by using BD Cytofix/Cytoperm™ Kit and stained with monoclonal anti-glucagon clone K79bB10 (SIGMA). The cells were analyzed by flow cytometry to determine the number of the glucagon positive cells.

[8] = PCR, 10 mM in step 3, 8 days, FIG. 5B
[9] = immune staining, Day 19, FIGS. 6A and 6B

## O=C(O)c1cc(=O)c2c(OCC(O)COc3cccc4oc(C(=O)O)cc(=O)c34)cccc2o1 [sodium cromoglicate, sodium salt of 1,3-Bis(2-carboxychromon-5-yloxy)-2-hydroxypropane]
[1]
  number of Ki67 positive cells, presence vs absence: no substantial difference
[2]; combined with forskolin (10 μM), nicotinamide (10 mM), dexamethasone (10 μM) or ALK5 inhibitor II (5 μM)
  expression of insulin in combination with each single additive: confirmed in all 4 combinations, although the amount of the expression was not so high
[2]; combined with forskolin, nicotinamide, dexamethasone or ALK5 inhibitor II
  effect on the agents' induction of insulin producing cells in combination: enhances the effects of all 4 agents
[2]; immune staining, 10 mM alone in step 3, 8 days, FIG. 8C
  amount of insulin positive cells: higher
[2]; quantitative PCR, 10 mM alone in step 3, 8 days, FIG. 8B
  ratio of insulin expression versus β-Actin expression, presence vs absence: higher
[3]
  ratio of insulin positive cells: ratio of insulin positive cells were increased
[4]; suspension culture 4 days, E12.5, E14.5, E16.5, FIG. 7B
  ratio of GFP positive cells: increased the ratio of GFP positive cells in each embryonic pancreatic anlage
[4]; PCR, 4 days, FIG. 7C
  expression of Neurog 3: increased
  expression of insulin: increased
[5]; Day 19, 4Fs plus sodium cromoglicate vs 4Fs, FIG. 5D
  amount of insulin produced by the cells, presence vs absence: higher
[5]; [8]
  expression of GHRE (Ghrelin): confirmed
  expression of NGN3: confirmed
  expression of SST (somatostatin), presence vs absence: higher
[5]; [9]
  expression of glucagon: increased
  expression of insulin: increased
  expression of somatostatin: increased
[6]
  ratio of insulin positive cells: increased the ratio of insulin positive cells in a concentration dependent manner
[7]; 10 mM, 8, 12 and 16 days in step 3, FIG. 2B
  ratio of insulin positive cells by culture period in step 3: increased in the groups cultured for 8 days, 12 days and 16 days
[7]; 10 mM, 4 days in step 3, FIG. 2B
  effect on ratio of insulin positive cells, 4 days in step 3: also confirmed, although the efficiency was low
[7]; 10 mM, 12 days in step 3, FIG. 4
  ratio of insulin positive cells: increased the ratio of both insulin positive cells and glucagon positive cells
[7]; 10 mM, 12 days in step 3, anti-glucagon flow cytometry, FIG. 4
  ratio of glucagon positive cells: increased the ratio of both insulin positive cells and glucagon positive cells
[7]; 10 mM, FIG. 2B
  culture period in step 3 giving the highest ratio of insulin positive cells: 12 days
[7]; anti-human C-peptide antibody, flow cytometry, FIG. 1C
  production of C-peptide: increased by addition of sodium cromoglicate in a dose dependent manner
[7]; step 3 12 days, FIG. 1A
  concentration giving the maximum insulin positive cell-ratio: 10 mM
  concentration in the culture medium that increased the ratio of insulin positive cells: ≥ 1 mM
